Five molecules from PMC12638379, “An innovative approach to development of new pyrazolylquinolin-2-one hybrids as dual EGFR and BRAF^V600E inhibitors” (Molecular Diversity, 2025) can be followed below.

Data set [1] deals with breast cancer (T47D) cell line. The data set can be described thus: MTT antiproliferative assay, T-47D. The procedure:
The median inhibitory concentration (IC50) and GI50 (average IC50) against the three cancer cell lines were calculated. See Appendix B.
Cells were cultured using DMEM (Invitrogen/Life Technologies) supplemented with 10% FBS (Hyclone,), 10 ug/ml of insulin (Sigma), and 1% penicillin-streptomycin. Plate cells (cells density 1.2 – 1.8 × 10,000 cells/well) in a volume of 100µl complete growth medium + 100 ul of the tested compound per well in a 96-well plate for 24 hours before the MTT assay. In atypical experiment, one hundred micro liters of serial 10-fold diluted sterile tested compounds were added to final concentrations of […] using culture media as negative control. After 24 h of culture incubation and supernatants discarded. HOP-92 lung, MOLT-4 leukemia, and T-47D breast cell lines were trypsinized and washed with Ca2/Mg2 free PBS (pH 7.2). we removed cultures from incubator into laminar flow hood or other sterile work area. […] Each test should include a blank containing complete medium without cells. […] Add reconstituted MTT in an amount equal to 10% of the culture medium volume. Return cultures to incubator for 2-4 hours depending on cell type and maximum cell density. […] Spectrophotometrically absorbance was measured at a wavelength of 570 nm. Measure the background absorbance of multiwell plates at 690 nm and subtract from the […] measurement. Results from all experiments were recorded and the percentage of viable cells was calculated.
Background: Tetrazolium dyes change colour on reduction, which living cells bring about.

The test system of another data set is caspase-9. The data set is described as follows: Caspase-9 level in HOP-92 cells (RT-PCR fold change). It counts as cell-based, human. The note with it: for Gene Expression FLD 2^ ΔΔCT Casp9: vs GAPDH, E=1.869, control = 1. From the text: (§1) In the depicted findings, compound 4e affected Bcl-2, caspase-3, and caspase-9, increasing the expression of caspase-3/9 and decreasing the expression of Bcl-2, confirming the apoptotic status.
(§2) Researcher : Dr.Mohamed Hawas email: mohhawwas80@gmail.com mob. 01151345909 Assay : Cell Cycle Analysis mohamedhassan.pharm.ast@azhr.edu.eg Assay : RT-PCR Samples : 02 SamplesCell lines : ----Ref. : ----Date : 12-06-2023Reader : Rotorgene RT- PCR system Kit used : Qiagen RNA extraction/BioRad syber green PCR MMXSolvent : DMSOAssay samples : Cell Lysate
Cells were obtained from American Type Culture Collection, cells were grown in RPMI 1640 containing 10% fetal bovine serum at 37°C, stimulated with the compounds to be tested […], and lysed with Cell Extraction Buffer. This lysate was diluted in Standard Diluent Buffer over the range of the assay and measured for human active caspase-8 or 9 content. […] The absorbance of each microwell was read on a spectro-photometer at 450 nm. A standard curve is prepared from 7 human Caspases standard dilutions and human Caspase-8 or 9 concentration determined.

The subject of the next data set is caspase-3. The data set is described as follows: Caspase-3 level in HOP-92 cells (RT-PCR fold change). Format: cell-based, human. The following applies: for Gene Expression FLD 2^ ΔΔCT Casp3: vs GAPDH, E=1.869, control = 1.
Description: as §1, §2
Allow all reagents to reach room temperature before use. Gently mix all liquidreagents prior to use. Determine the number of 8-well strips needed for the assay. Insert these in the frame(s) for current use. Add 100 μl of the Standard Diluent Buffer to the zero standard wells. Well(s) reserved for chromogen blank should be left empty. Add 100 μl of standards and controls or diluted samples to the appropriate microtiter wells. The sample dilution chosen should be optimized for each experimental system. Tap gently on side of plate to mix. Cover wells with plate cover and incubate for 2 hours at room temperature. Thoroughly aspirate or decant solution from wells and discard the liquid, Wash wells 4 times. Pipette 100 μl of Caspase-3 (Active) Detection Antibody solution into each well except the chromogen blank(s). Tap gently on the side of the plate to mix. Cover plate with plate cover and incubate for 1 hour at room temperature. Thoroughly aspirate or decant solution from wells and discard the liquid, Wash wells 4 times. Add 100 μl Anti-Rabbit IgG HRP Working Solution to each well except the chromogen blank(s). Prepare the working dilution as described in Preparing IgG HRP. Cover wells with the plate cover and incubate for 30 minutes at room temperature. Thoroughly aspirate or decant solution from wells and discard the liquid. Wash wells 4 times. Add 100 μl of Stabilized Chromogento each well. The liquid in the wells will begin to turn blue. Incubate for 30 minutes at room temperature and in the dark. The incubation time for chromogen substrate is often determined by the microtiter platereader used. Many plate readers have the capacity to record a maximum optical density (O.D.) of 2.0. The O.D. values should be monitored and the substrate reaction stopped before the O.D. of the positive wells exceeds the limits of the instrument. The O.D. values at 450 nm can only be read after the Stop Solution has been added to each well. […] Read the absorbance of each well at 450 nm having blanked the plate reader against a chromogen blank composed of 100 μl each of StabilizedChromogenand Stop Solution. Read the plate within 2 hours after adding the Stop Solution. […] Read the concentrations for unknown samples and controls from the standard curve. […]

Where [2] appears, read: Homo sapiens, T47D, T-47D, MTT, 0.4uM.
Setting [3] is: Homo sapiens, T47D, T-47D, MTT, 1.6uM.
Where [4] appears, read: Homo sapiens, T47D, T-47D, MTT, 6.3uM.
Setting [5] is: Homo sapiens, T47D, T-47D, MTT, 25uM.
[6] abbreviates: Homo sapiens, T47D, T-47D, MTT, 100uM.
Setting [7] is: Homo sapiens, T47D, read-out: Antiproliferative activity IC50 ± SEM, T-47D, MTT.
Setting [8] is: Homo sapiens, T47D, 6.3uM (log 0.796).
[9] abbreviates: Homo sapiens, T47D, 25uM (log 1.398).
Where [10] appears, read: Homo sapiens, T47D, 100uM (log 2), MTT absorbance 450 nm.

Where “and” joins values, the source holds several entries; their conditions need not be identical. Equal entries are not always repeated. Where two headings read alike, the source gives them in different places.

As for `C/C(=N\Nc1ccc(S(N)(=O)=O)cc1)c1cnn(-c2cc(=O)[nH]c3ccc(Cl)cc23)c1C` [Compound 4d, (E)-4-(2-(1-(1-(6-chloro-2-oxo-1,2-dihydroquinolin-4-yl)-5-methyl-1H-pyrazol-4-yl)ethylidene)hydrazineyl)benzenesulfonamide], in data set [1] (setting [2]), the viability (usually a per cent measure of how many cells are alive, often set against a control) at 0.4 µM is 77.2%. The viability at 1.6 µM in data set [1] (setting [3]) was 68.1%. The molecule also yielded a viability at 6.3 µM in data set [1] (setting [4]) of 56.8%. In data set [1] (setting [5]), the viability at 25 µM amounted to 45.8%. The same molecule showed a viability at 100 µM in data set [1] (setting [6]) of 33.6%. Further, the IC50 (in general, the concentration that inhibits the measured activity by half) in data set [1] (setting [7]) amounted to 13.8 ± 0.48 µM. Moreover, the “% viability” value in data set [1] (T-47D, MTT, 1.6uM, listed as Ws4, 1.6 µM) was 68.09%; in data set [1] (T-47D, MTT, 6.3uM, listed as Ws4, 6.3 µM) it was 56.85%; in data set [1] (T-47D, MTT, 25uM, listed as Ws4, 25 µM), 45.78%; in data set [1] (T-47D, MTT, 100uM, listed as Ws4, 100 µM), 33.56%.

As for `C/C(=N\Nc1ccc(S(N)(=O)=O)cc1)c1cnn(-c2cc(=O)[nH]c3ccc(Br)cc23)c1C` [Compound 4e, (E)-4-(2-(1-(1-(6-bromo-2-oxo-1,2-dihydroquinolin-4-yl)-5-methyl-1H-pyrazol-4-yl)ethylidene)hydrazineyl)benzenesulfonamide], the viability at 0.4 µM in data set [1] (Homo sapiens, T47D, 0.4uM (log -0.41)) is 74%. This molecule yielded a viability at 6.3 µM in data set [1] (setting [8]) of 52.1%. In data set [1] (setting [9]), this molecule yielded a viability at 25 µM of 42.1%. In data set [1] (setting [10]), the viability at 100 µM turned out to be 32.1%. Besides, the IC50 stood at 8.02 ± 0.31 µM in data set [1] (setting [7]) and 8.62 ± 0.34 µM in data set [1] (read-out: Antiproliferative activity IC50 ± SEM, T-47D, MTT). Also, the “% viability” value was 61.86% in data set [1] (T47D, 1.6ug (log 0.193)) and 42.072% in data set [1] (T47D, 25uM (log 1.398), listed as Ws5, 25 µM). The “RT-PCR Fold Change FLD Casp9” value in the data set with caspase-9 (control = 1) is given as 3.082. The “Gene Expression FLD 2^ ΔΔCT Casp9” value in the data set with caspase-9 was 3.0825. Besides, in the data set with caspase-9 (vs untreated control), the “RT-PCR Fold Change Casp-9” value is 3.082 fold. The “RT-PCR Fold Change FLD Casp3” value in the data set on caspase-3 (control = 1) came out at 4.716. Further, in the data set on caspase-3, the “Gene Expression FLD 2^ ΔΔCT Casp3” value is 4.7162. For the same molecule, in the data set with caspase-3 (vs untreated control), the “RT-PCR Fold Change Casp-3” value amounted to 4.716 fold.

For the molecule `C/C(=N\Nc1ccc(C(=O)O)cc1)c1cnn(-c2cc(=O)[nH]c3ccccc23)c1C` [Compound 4f, (E)-4-(2-(1-(5-methyl-1-(2-oxo-1,2-dihydroquinolin-4-yl)-1H-pyrazol-4-yl)ethylidene) hydrazineyl)benzoic acid], the viability at 0.4 µM in data set [1] (setting [2]) is 78.6%. For the same molecule, the viability at 1.6 µM in data set [1] (setting [3]) stood at 72.1%. Further, the viability at 6.3 µM in data set [1] (setting [4]) came out at 61.4%. This molecule also yielded a viability at 25 µM in data set [1] (setting [5]) of 50.1%. This molecule showed a viability at 100 µM in data set [1] (setting [6]) of 41.1%. Also, the IC50 in data set [1] (setting [7]) was 28.6 ± 0.99 µM. For the same molecule, the “% viability” value in data set [1] (T-47D, MTT, 1.6uM, listed as ws6, 1.6 µM) amounted to 72.1271%; in data set [1] (T-47D, MTT, 6.3uM, listed as ws6, 6.3 µM), 61.3692%; in data set [1] (T-47D, MTT, 100uM, listed as ws6, 100 µM), 41.0758%.

`C/C(=N\Nc1ccc(C(=O)O)cc1)c1cnn(-c2cc(=O)[nH]c3ccc(C)cc23)c1C` [Compound 4g, (E)-4-(2-(1-(5-methyl-1-(6-methyl-2-oxo-1,2-dihydroquinolin-4-yl)-1H-pyrazol-4-yl)ethylidene)hydrazineyl)benzoic acid]: in data set [1] (Homo sapiens, T47D, T-47D, 0.4uM (log conc. -0.41)), the viability at 0.4 µM is 68.5%. In data set [1] (Homo sapiens, T47D, T-47D, 1.6uM (log conc. 0.19)), this molecule gave a viability at 1.6 µM of 61.7%. The molecule also had a viability at 6.3 µM in data set [1] (Homo sapiens, T47D, T-47D, 6.3uM (log conc. 0.8)) of 55%. In addition, the viability at 25 µM in data set [1] (Homo sapiens, T47D, T-47D, 25uM (log conc. 1.4)) was 44.6%. Also, the viability at 100 µM in data set [1] (Homo sapiens, T47D, T-47D, 100uM (log conc. 2)) came out at 34%. Further, the IC50 in data set [1] (setting [7]) was 9.71 ± 0.34 µM. For the same molecule, the “% viability” value in data set [1] (T-47D, 0.4uM (log conc. -0.41), listed as Ws7, 0.4 µM) came to 68.49%; in data set [1] (T-47D, 1.6uM (log conc. 0.19), listed as Ws7, 1.6 µM), 61.66%; in data set [1] (T-47D, 6.3uM (log conc. 0.8), listed as Ws7, 6.3 µM) it was 55.01%; in data set [1] (T-47D, 25uM (log conc. 1.4), listed as Ws7, 25 µM), 44.58%; in data set [1] (T-47D, 100uM (log conc. 2), listed as Ws7, 100 µM), 33.98%.

In data set [1] (Homo sapiens, T47D), `CN[C@@H]1C[C@H]2O[C@@](C)([C@@H]1OC)n1c3ccccc3c3c4c(c5c6ccccc6n2c5c31)C(=O)NC4` [Staurosporine, reference compound] displayed a viability at 0.4 µM of 69%. Moreover, in data set [1] (setting [8]), the viability at 6.3 µM came out at 45.9%. For the same molecule, the viability at 25 µM in data set [1] (setting [9]) is 35%. In data set [1] (setting [10]), this molecule came in with a viability at 100 µM of 29.6%. The “% viability” value in data set [1] (T47D, 1.6ug (log 0.193), listed as STA) was 61.548% and 61.55%; in data set [1] (human, 0.4 µM), 69.04%. Also, the “Gene Expression FLD 2^ ΔΔCT Casp9” value in the data set with caspase-9 came to 5.5143. Besides, the “Gene Expression FLD 2^ ΔΔCT Casp3” value in the data set on caspase-3 was 6.9067.
